From patent US6486322B1, “Azaindole derivatives, process for their preparation, and their use as antitumor agents” (Pharmacia Italia S.p.A., priority 2000, dated 2002)

melting point | SMILES
> 230 °C | O=C(O)C(=Cc1c[nH]c2ncccc12)c1ccccc1 [compound 300, 2-phenyl-3-(1H-pyrrolo[2,3-b]pyridin-3-yl)-2-propenoic acid]
222 to 224 °C | NC(=O)C(=Cc1c[nH]c2ncccc12)c1ccccc1 [compound 299, 2-phenyl-3-(1H-pyrrolo[2,3-b]pyridin-3-yl)-2-propenamide]
177 to 179 °C (dec.) | CCCCNC(=O)C(=Cc1c[nH]c2ncccc12)c1ccccc1 [compound 301, N-butyl-2-phenyl-3-(1H-pyrrolo[2,3-b]pyridin-3-yl)-2-propenamide]
